The values that follow are results of earlier work, collected in PMC9001717, “Tyrosine 121 moves revealing a ligandable pocket that couples catalysis to ATP-binding in serine racemase” (Communications Biology, 2022).

The chains are these.
B1: Golga3: Golgin subfamily A member 3 (protein, UniProt Q08378 1-1498, looked up)
Golgin subfamily A member 3: MDGASAEQDGLQEDRSHSGPSSLPEAPLKPPGPLVPPDQQDKVQCAEVNRASTEGESPDGPGQGGLCQNGPTPPFPDPPSSLDPTTSPVGPDASPGVAGFHDNLRKSQGTSAEGSVRKEALQSLRLSLPMQETQLCSTDSPLPLEKEEQVRLQARKWLEEQLKQYRVKRQQERSSQPATKTRLFSTLDPELMLNPENLPRASTLAMTKEYSFLRTSVPRGPKVGSLGLPAHPREKKTSKSSKIRSLADYRTEDSNAGNSGGNVPAPDSTKGSLKQNRSSAASVVSEISLSPDTDDRLENTSLAGDSVSEVDGNDSDSSSYSSASTRGTYGILSKTVGTQDTPYMVNGQEIPADTLGQFPSIKDVLQAAAAEHQDQGQEVNGEVRSRRDSICSSVSLESSAAETQEEMLQVLKEKMRLEGQLEALSLEASQALKEKAELQAQLAALSTKLQAQVECSHSSQQRQDSLSSEVDTLKQSCWDLERAMTDLQNMLEAKNASLASSNNDLQVAEEQYQRLMAKVEDMQRSMLSKDNTVHDLRQQMTALQSQLQQVQLERTTLTSKLKASQAEISSLQSVRQWYQQQLALAQEARVRLQGEMAHIQVGQMTQAGLLEHLKLENVSLSQQLTETQHRSMKEKGRIAAQLQGIEADMLDQEAAFMQIQEAKTMVEEDLQRRLEEFEGERERLQRMADSAASLEQQLEQVKLTLLQRDQQLEALQQEHLDLMKQLTLTQEALQSREQSLDALQTHYDELQARLGELQGEAASREDTICLLQNEKIILEAALQAAKSGKEELDRGARRLEEGTEETSETLEKLREELAIKSGQVEHLQQETAALKKQMQKIKEQFLQQKVMVEAYRRDATSKDQLISELKATRKRLDSELKELRQELMQVHGEKRTAEAELSRLHREVAQVRQHMADLEGHLQSAQKERDEMETHLQSLQFDKEQMVAVTEANEALKKQIEELQQEARKAITEQKQKMRRLGSDLTSAQKEMKTKHKAYENAVGILSRRLQEALAAKEAADAELGQLRAQGGSSDSSLALHERIQALEAELQAVSHSKTLLEKELQEVIALTSQELEESREKVLELEDELQESRGFRKKIKRLEESNKKLALELEHEKGKLTGLGQSNAALREHNSILETALAKREADLVQLNLQVQAVLQRKEEEDRQMKHLVQALQASLEKEKEKVNSLKEQVAAAKVEAGHNRRHFKAASLELSEVKKELQAKEHLVQKLQAEADDLQIREGKHSQEIAQFQAELAEARAQLQLLQKQLDEQLSKQPVGNQEMENLKWEVDQKEREIQSLKQQLDLTEQQGRKELEGLQQLLQNVKSELEMAQEDLSMTQKDKFMLQAKVSELKNNMKTLLQQNQQLKLDLRRGAAKTRKEPKGEASSSNPATPIKIPDCPVPASLLEELLRPPPAVSKEPLKNLNSCLQQLKQEMDSLQRQMEEHALTVHESLSSWTPLEPATASPVPPGGHAGPRGDPQRHSQSRASKEGPGE
B2: PICK1: protein interacting with C-kinase (protein, UniProt Q9NRD5 1-415, looked up)
PRKCA-binding protein: MFADLDYDIEEDKLGIPTVPGKVTLQKDAQNLIGISIGGGAQYCPCLYIVQVFDNTPAALDGTVAAGDEITGVNGRSIKGKTKVEVAKMIQEVKGEVTIHYNKLQADPKQGMSLDIVLKKVKHRLVENMSSGTADALGLSRAILCNDGLVKRLEELERTAELYKGMTEHTKNLLRAFYELSQTHRAFGDVFSVIGVREPQPAASEAFVKFADAHRSIEKFGIRLLKTIKPMLTDLNTYLNKAIPDTRLTIKKYLDVKFEYLSYCLKVKEMDDEEYSCIALGEPLYRVSTGNYEYRLILRCRQEARARFSQMRKDVLEKMELLDQKHVQDIVFQLQRLVSTMSKYYNDCYAVLRDADVFPIEVDLAHTTLAYGLNQEEFTDGEEEEEEEDTAAGEPSRDTRGAAGPLDKGGSWCDS
B3: GRIP: glutamate receptor-interacting protein (protein, UniProt Q9Y3R0 1-1128, looked up)
Glutamate …: MIAVSFKCRCQILRRLTKDESPYTKSASQTKPPDGALAVRRQSIPEEFKGSTVVELMKKEGTTLGLTVSGGIDKDGKPRVSNLRQGGIAARSDQLDVGDYIKAVNGINLAKFRHDEIISLLKNVGERVVLEVEYELPPVSVQGSSVIFRTVEVTLHKEGNTFGFVIRGGAHDDRNKSRPVVITCVRPGGPADREGTIKPGDRLLSVDGIRLLGTTHAEAMSILKQCGQEAALLIEYDVSVMDSVATASGPLLVEVAKTPGASLGVALTTSMCCNKQVIVIDKIKSASIADRCGALHVGDHILSIDGTSMEYCTLAEATQFLANTTDQVKLEILPHHQTRLALKGPDHVKIQRSDRQLTWDSWASNHSSLHTNHHYNTYHPDHCRVPALTFPKAPPPNSPPALVSSSFSPTSMSAYSLSSLNMGTLPRSLYSTSPRGTMMRRRLKKKDFKSSLSLASSTVGLAGQVVHTETTEVVLTADPVTGFGIQLQGSVFATETLSSPPLISYIEADSPAERCGVLQIGDRVMAINGIPTEDSTFEEASQLLRDSSITSKVTLEIEFDVAESVIPSSGTFHVKLPKKHNVELGITISSPSSRKPGDPLVISDIKKGSVAHRTGTLELGDKLLAIDNIRLDNCSMEDAVQILQQCEDLVKLKIRKDEDNSDEQESSGAIIYTVELKRYGGPLGITISGTEEPFDPIIISSLTKGGLAERTGAIHIGDRILAINSSSLKGKPLSEAIHLLQMAGETVTLKIKKQTDAQSASSPKKFPISSHLSDLGDVEEDSSPAQKPGKLSDMYPSTVPSVDSAVDSWDGSAIDTSYGTQGTSFQASGYNFNTYDWRSPKQRGSLSPVTKPRSQTYPDVGLSYEDWDRSTASGFAGAADSAETEQEENFWSQALEDLETCGQSGILRELEEKADRRVSLRNMTLLATIMSGSTMSLNHEAPTPRSQLGRQASFQERSSSRPHYSQTTRSNTLPSDVGRKSVTLRKMKQEIKEIMSPTPVELHKVTLYKDSDMEDFGFSVADGLLEKGVYVKNIRPAGPGDLGGLKPYDRLLQVNHVRTRDFDCCLVVPLIAESGNKLDLVISRNPLASQKSIDQQSLPGDWSEQNSAFFQQPSHGGNLETREPTNTL
B4: DISC1: Disrupted-In-Schizophrenia-1 (protein, UniProt Q9NRI5 1-854, looked up)
Disrupted in schizophrenia 1 …: MPGGGPQGAPAAAGGGGVSHRAGSRDCLPPAACFRRRRLARRPGYMRSSTGPGIGFLSPAVGTLFRFPGGVSGEESHHSESRARQCGLDSRGLLVRSPVSKSAAAPTVTSVRGTSAHFGIQLRGGTRLPDRLSWPCGPGSAGWQQEFAAMDSSETLDASWEAACSDGARRVRAAGSLPSAELSSNSCSPGCGPEVPPTPPGSHSAFTSSFSFIRLSLGSAGERGEAEGCPPSREAESHCQSPQEMGAKAASLDGPHEDPRCLSRPFSLLATRVSADLAQAARNSSRPERDMHSLPDMDPGSSSSLDPSLAGCGGDGSSGSGDAHSWDTLLRKWEPVLRDCLLRNRRQMEVISLRLKLQKLQEDAVENDDYDKAETLQQRLEDLEQEKISLHFQLPSRQPALSSFLGHLAAQVQAALRRGATQQASGDDTHTPLRMEPRLLEPTAQDSLHVSITRRDWLLQEKQQLQKEIEALQARMFVLEAKDQQLRREIEEQEQQLQWQGCDLTPLVGQLSLGQLQEVSKALQDTLASAGQIPFHAEPPETIRSLQERIKSLNLSLKEITTKVCMSEKFCSTLRKKVNDIETQLPALLEAKMHAISGNHFWTAKDLTEEIRSLTSEREGLEGLLSKLLVLSSRNVKKLGSVKEDYNRLRREVEHQETAYETSVKENTMKYMETLKNKLCSCKCPLLGKVWEADLEACRLLIQSLQLQEARGSLSVEDERQMDDLEGAAPPIPPRLHSEDKRKTPLKVLEEWKTHLIPSLHCAGGEQKEESYILSAELGEKCEDIGKKLLYLEDQLHTAIHSHDEDLIQSLRRELQMVKETLQAMILQLQPAKEAGEREAAASCMTAGVHEAQA

This series concerns SR. The arrangement: method as in supplementary refs 2, 11-32. Particulars: literature summary; ref supplementary refs 2, 11-32; cited from earlier work.
With `O=C(O)C1CC1C(=O)O` (stereo not drawn) [1,2-cyclopropanedicarboxylic acid], the Inhibition mode entry is “Competitive”.

In the case of `O=C(O)C(CO)(CO)C(=O)O` [2,2-bis(hydroxymethyl)malonate], the Inhibition mode entry is reported as “Competitive”. For `O=C(O)C(Cl)(Cl)C(=O)O` [2,2-dichloromalonate], the Inhibition mode result is on record as “Competitive”. For `NC(C(=O)O)C(=O)O` [2-aminomalonate], the Inhibition mode entry is recorded as “Competitive”.

Regarding `O=C(O)C(F)C(=O)O` [2-fluoromalonate], the Inhibition mode entry is on record as “Competitive”.

On to `O=C(O)C(O)C(=O)O` [2-hydroxymalonate], for which the Inhibition mode result is “Competitive”. `O=C(O)/C(O)=C(\O)C(=O)O` [Dihydroxyfumaric]: the Inhibition mode result is “Competitive”. On to `NC(CCS(=O)(=O)O)C(=O)O` (stereo not drawn) [Homocysteic acid], for which the Inhibition mode entry is “Competitive”. Take `NC(=O)C[C@H](N)C(=O)O` [L-asparagine]: the Inhibition mode entry was “Competitive”. As to `N[C@@H](CC(=O)O)C(=O)O` [L-aspartate], the Inhibition mode entry is “Competitive”.

For `N[C@@H](CSS(=O)(=O)O)C(=O)O` [L-cysteine-S-sulfate], the Inhibition mode entry is given as “Competitive”. Turning to `O=C(O)C[C@H](O)C(=O)O` [L-malic], the Inhibition mode entry is given as “Competitive”. As to `N[C@@H](COS(=O)(=O)O)C(=O)O` [L-serine-O-sulfate], the Inhibition mode entry was “Competitive”.

In the case of `O=C(O)/C=C\C(=O)O` [Maleic], the Inhibition mode entry is reported as “Competitive”. As for `O=C(O)CC(=O)C(=O)O` [Oxaloacetic acid], the Inhibition mode result is given as “Product inhibition”. Regarding `O=C(O)CCC(=O)O` [Succinic], the Inhibition mode result is “Competitive”. `O=C(O)C(O)C(O)C(=O)O` (stereo not drawn) [Tartaric]: the Inhibition mode entry is “Competitive”. As to `NC(CO)(CO)C(=O)O` [α-(hydroxymethyl)serine], the Inhibition mode result was “Substrate-product inhibition”. Regarding `N[C@@H](CCl)C(=O)O` [β-chloro-L-alanine], the Inhibition mode result is “Competitive”. Turning to “phosphatidylinositol 4,5-bisphosphate [PIP2]”, the Inhibition mode entry was “Inhibition (noncompetitive)”. B1: the Inhibition mode result is on record as “Increases SR levels”.

As for B2, the Inhibition mode entry is reported as “Inhibition; binds to SR”. For B3, the Inhibition mode result was “Activation; binds to SR”. As for B4, the Inhibition mode result is recorded as “Stabilises SR”.
